Results as given in ChEMBL document CHEMBL1135261, “Antitumor agents. Part 3: synthesis and cytotoxicity of new trans-stilbene benzenesulfonamide derivatives” (2002).

Legend:
Details in all cases: Homo sapiens
KM12 = test: Tested for the cytotoxicity against the colon cancer cell line KM-12, growth inhibition by 50% is reported; type: functional
HOP-92 = test: Tested for the cytotoxicity against the Non-small cell lung cancer cell line HOP-92, growth inhibition by 50% is reported; type: functional
HCT-15 = test: Tested for the cytotoxicity against the colon cancer cell line HCT15, growth inhibition by 50% is reported; type: functional
UACC-62 = test: Tested for the cytotoxicity against the Melanoma cell line UACC-62, growth inhibition by 50% is reported; type: functional
MDA-MB-435 = test: Tested for the cytotoxicity against the Breast cancer cell line MDAMB435, growth inhibition by 50% is reported; type: functional
NCI-H226 = test: Tested for the cytotoxicity against the Non-small cell lung cancer cell line NCI-H226, growth inhibition by 50% is reported; type: functional
HL-60 = test: Tested for the cytotoxicity against the Leukemia cell line HL60, growth inhibition by 50% is reported; type: functional
CCRF-CEM = test: Tested for the cytotoxicity against the Leukemia cell line CCRF-CEM, growth inhibition by 50% is reported; type: functional
RPMI-8226 = test: Tested for the cytotoxicity against the Leukemia cell line RPMI8226, growth inhibition by 50% is reported; type: functional
SR = test: Tested for the cytotoxicity against the Leukemia cell line SR, growth inhibition by 50% is reported; type: functional
SF-539 = test: Tested for the cytotoxicity against the CNS cancer cell line SF-539, growth inhibition by 50% is reported; type: functional
BT-549 = test: Tested for the cytotoxicity against the Breast cancer cell line BT-549, growth inhibition by 50% is reported; type: functional
CAKI-1 = test: Tested for the cytotoxicity against the Renal cancer cell line CAKI-1, growth inhibition by 50% is reported; type: functional
IGROV-1 = test: Tested for the cytotoxicity against the Ovarian cancer cell line IGROV1, growth inhibition by 50% is reported; type: functional
LOX IMVI = test: Tested for the cytotoxicity against the Melanoma cell line LOXIMVI, growth inhibition by 50% is reported; type: functional
HT-29 = test: Tested for the cytotoxicity against the colon cancer cell line HT29, growth inhibition by 50% is reported; type: functional
NCI-H23 = test: Tested for the cytotoxicity against the Non-small cell lung cancer cell line NCI-H23, growth inhibition by 50% is reported
Hs-578T = test: Tested for the cytotoxicity against the Breast cancer cell line HS-578T, growth inhibition by 50% is reported; type: functional
OVCAR-4 = test: Tested for the cytotoxicity against the Ovarian cancer cell line OVCAR-4, growth inhibition by 50% is reported; type: functional
SF-268 = test: Tested for the cytotoxicity against the CNS cancer cell line SF-268, growth inhibition by 50% is reported; type: functional
A549 = test: Tested for the cytotoxicity against the Non-small cell lung cancer cell line A-549, growth inhibition by 50% is reported; type: functional
U-251 = test: Tested for the cytotoxicity against the CNS cancer cell line U251,growth inhibition by 50% is reported; type: functional
OVCAR-8 = test: Tested for the cytotoxicity against the Ovarian cancer cell line OVCAR-8, growth inhibition by 50% is reported; type: functional
K562 = test: Tested for the cytotoxicity against the Leukemia cell line K-562, growth inhibition by 50% is reported; type: functional
ACHN = test: Tested for the cytotoxicity against the Renal cancer cell line ACHN, growth inhibition by 50% is reported; type: functional
MOLT-4 = test: Tested for the cytotoxicity against the Leukemia cell line MOLT-4, growth inhibition by 50% is reported; type: functional
NCI-H522 = test: Tested for the cytotoxicity against the Non-small cell lung cancer cell line NCI-H522 growth inhibition by 50% is reported; type: functional

Compound	GI50 (KM12) [µM]	GI50 (HOP-92) [µM]	GI50 (HCT-15) [µM]	GI50 (MDA-MB-435) [µM]	GI50 (NCI-H226) [µM]	GI50 (HL-60) [µM]	GI50 (CCRF-CEM) [µM]	GI50 (RPMI-8226) [µM]	GI50 (SR) [µM]	GI50 (SF-539) [µM]	GI50 (CAKI-1) [µM]	GI50 (IGROV-1) [µM]	GI50 (LOX IMVI) [µM]	GI50 (HT-29) [µM]	GI50 (NCI-H23) [µM]	GI50 (Hs-578T) [µM]	GI50 (OVCAR-4) [µM]	GI50 (SF-268) [µM]	GI50 (A549) [µM]	GI50 (U-251) [µM]	also measured
COc1cc(/C=C/c2ccc(S(N)(=O)=O)cc2)cc(OC)c1	20.8	15	17.4	18.7	12.3	18.6	19.9	14.3	19.7	18.8	19	23.1	18.2	16.2	22.5	20.1	21.2	28.3	20.7	17.1	GI50 (UACC-62): 15.4 µM; GI50 (BT-549): 10.7 µM; GI50 (OVCAR-8): 37.9 µM; GI50 (K562): 28.7 µM; GI50 (ACHN): 23.5 µM; GI50 (MOLT-4): 18.6 µM
COc1cccc(/C=C/c2ccc(S(N)(=O)=O)cc2)c1	12.2	3.29	3.6	17.4	2.91	10.4	13.6	3.81	5.21	16.8	14.7	2.5	30.7	0.554	21	25.5	25	17.1	11	5.54	GI50 (UACC-62): 14 µM; GI50 (BT-549): 6.38 µM; GI50 (OVCAR-8): 31.6 µM; GI50 (K562): 20.6 µM; GI50 (ACHN): 7.12 µM; GI50 (MOLT-4): 26.8 µM
NS(=O)(=O)c1ccc(/C=C/c2ccc(O)c(O)c2)cc1	18.2	15.8	13.9	16.8	14	16.3	4.79	9.16	12.7	14.2	29.1	4.49	29.9	35.4	25.9	25.6	11.6	18.2	22.3	16.3	GI50 (UACC-62): 23.3 µM; GI50 (BT-549): 4.13 µM; GI50 (NCI-H522): 2.25 µM; GI50 (OVCAR-8): 16.7 µM; GI50 (K562): 35.3 µM; GI50 (ACHN): 20.4 µM; GI50 (MOLT-4): 12.8 µM
NS(=O)(=O)c1ccc(/C=C/c2cccc(O)c2)cc1	35.4	17.4	22.8	25.8	25.8	41.4	16.1	18.9	17.8	36.7	50.2	30.2	43	43.3	46.1	61	27.8	65.6	19.8	21.1	GI50 (UACC-62): 18.6 µM; GI50 (NCI-H522): 12.2 µM; GI50 (OVCAR-8): 25.2 µM; GI50 (K562): 43.4 µM; GI50 (ACHN): 25.8 µM; GI50 (MOLT-4): 20 µM
NS(=O)(=O)c1ccc(/C=C/c2ccc(F)cc2)cc1	16.3	33.2	9.98	27	7.97	37.3	62	42.3	10.5	29.1	36.3	20.9	26.7	29.4	45.1	23.7	34.4	20.5	8.93	7.93	GI50 (BT-549): 0.205 µM; GI50 (NCI-H522): 4.81 µM; GI50 (OVCAR-8): 15.2 µM; GI50 (K562): 14.9 µM; GI50 (ACHN): 2.97 µM; GI50 (MOLT-4): 12.9 µM
NS(=O)(=O)c1ccc(/C=C/c2ccc(O)cc2)cc1	11.1	31.5	24.6	20.3	11.1	4.35	4.5	7.09	4.68	7.4	5.59	20.3	19.1	17.8	16.9	28.9	36.9	31.5	13.9	15	GI50 (UACC-62): 3.4 µM; GI50 (NCI-H522): 13.8 µM; GI50 (OVCAR-8): 4.81 µM; GI50 (K562): 24.9 µM; GI50 (ACHN): 2.28 µM; GI50 (MOLT-4): 22.6 µM
CN(C)c1ccc(/C=C/c2ccc(S(N)(=O)=O)cc2)cc1	8.28	16.6	17.1	7.63	12.1	> 100	46	11.6	8.58	11.7	50.3	13.4	18.7	30.8	14.2	3.03	3.34	7.16	10.1	11.2	GI50 (BT-549): 2.14 µM; GI50 (NCI-H522): 6.88 µM; GI50 (OVCAR-8): 4.95 µM; GI50 (K562): > 100 µM; GI50 (ACHN): 13.6 µM; GI50 (MOLT-4): > 100 µM
